According to patent US20230038188A1 (priority 2021, published 2023):
Several values for one entry are separate records, joined by “and”; a condition that tells them apart may be missing. Equal values may be shown once.

Experiments:
Format in all cases: biochemical
Conditions in all cases: 1.5 mg/ml
prothrombin = test: Prothrombin time (plasma clotting time with PT reagent)
Procedure: (§1) The blood clotting inhibitory activity (thrombus formation inhibitory activity) of each of the wasp extracts prepared in Example 1 was evaluated by measuring the thrombin time, the prothrombin time and the aPTT time in the same manner as a previously reported method (Sohn et al., 2004. Kor. J. Pharmacogn 35. 52-61; Kwon et al., 2004. J. Life Science, 14. 509-513; Ryu et al., 2010. J. Life Science, 20. 922-928). As plasma, control plasma (MD Pacific Technology Co., Ltd., Huayuan Industrial Area, China) was used. The thrombin time, the prothrombin time and the aPTT time were measured by the following methods.
70 μl of standard plasma (MD Pacific Co., China) and 10 μl of each sample extract at various concentrations were added to a tube of Amelung coagulometer KC-1A (Japan) and warmed at 37° C. for 3 minutes, and then 130 μl of PT reagent was added thereto. The time taken for the plasma to clot was expressed as the average of three repeated experiments. […] The prothrombin inhibitory activity was expressed as the value obtained by dividing the clotting time after sample addition by the clotting time of the solvent control.

human thrombin = biological target: T1, human thrombin (Homo sapiens, UniProt P00734); test: Thrombin time (plasma clotting time with added thrombin)
T1 construct: 50 μl of 0.5 U thrombin (Sigma Co., USA); purchased Sigma Co., USA
Procedure: as §1
50 μl of 0.5 U thrombin (Sigma Co., USA), 50 μl of 20 mM CaCl2) and 10 μl of each sample extract at various concentrations were mixed in a tube of Amelung coagulometer KC-1A (Japan) at 37° C. and allowed to react for 2 minutes, and then 100 μl of plasma was added thereto and the time taken for the plasma to clot was measured. As a control, aspirin (Sigma Co., USA) was used, and a solvent control, DMSO was used instead of the sample. […] The thrombin inhibitory effect was expressed as the average of three or more repeated experiments, and the thrombin inhibitory activity was expressed as the value obtained by dividing the clotting time after sample addition by the clotting time of the solvent control.

blood clotting factors = test: Activated partial thromboplastin time (aPTT)
Procedure: as §1
Activated Partial Thromboplastin Time (aPTT)
100 μl of plasma and 10 μl of each sample extract at various concentrations were added to a tube of Amelung coagulometer KC-1A (Japan) and warmed at 37° C. for 3 minutes, and then 50 μl of aPTT reagent (Sigma, ALEXIN™) was added thereto, followed by incubation at 37° C. for 3 minutes. Thereafter, 50 μl of CaCl2) (35 mM) was added thereto, and then the time taken for the plasma to clot was measured. […] The aPTT was expressed as the average of three repeated experiments, and the blood clotting inhibitory activity was expressed as the value obtained by dividing the aPTT after sample addition by the aPTT of the solvent control.

## CC(=O)Oc1ccccc1C(=O)O [Aspirin]
prothrombin; Table 2
  Prothrombin time (blood clotting time after sample addition/blood clotting time after solvent addition): 1.44 and 1.44 ± 0.04
prothrombin; Table 4
  Prothrombin time (blood clotting time after sample addition/blood clotting time after solvent addition): 1.73 ± 0.01
Human thrombin; Table 2
  Thrombin time (blood clotting time after sample addition/blood clotting time after solvent addition): 1.54 and 1.54 ± 0.11
Human thrombin; Table 4
  Thrombin time (blood clotting time after sample addition/blood clotting time after solvent addition): 1.43 ± 0.04
Blood clotting factors; Table 2
  Blood clotting factor inhibition time (aPTT time) (sample/solvent): 1.55 and 1.55 ± 0.07
Blood clotting factors; Table 4
  Blood clotting factor inhibition time (aPT time) (sample/solvent): 1.42 ± 0.03
